How the values were obtained:
COLO-205 = assay: MTS proliferation assay; type: cell-based, human
Description: (§1) Cell lines and in vitro cytotoxicity assay. Cells were maintained at 37° C. under standard cell culture conditions. Cells were plated at an optimized density for each cell line per well in 96-well microtiter FALCON® plates, incubated overnight, and then exposed to a serial dilution of drug. […] The results were expressed as an IC50, which is the drug concentration required to inhibit cell proliferation to 50% of that of untreated control cells. The mean IC50 and standard deviation (SD) from multiple tests for each cell line were calculated.
(§2) In vitro Cellular Proliferation Assays.

COLO-678 = assay: MTS proliferation assay; type: cell-based, human
Description: as §1, §2

COLO320DM = assay: MTS proliferation assay; type: cell-based, human
Description: as §1, §2

CaR-1 = assay: MTS proliferation assay; type: cell-based, human
Description: as §1, §2

DIFI = assay: MTS proliferation assay; type: cell-based, human
Description: as §1, §2

GEO = assay: MTS proliferation assay; type: cell-based, human
Description: as §1, §2

GP2D = assay: MTS proliferation assay; type: cell-based, human
Description: as §1, §2

GP5D = assay: MTS proliferation assay; type: cell-based, human
Description: as §1, §2

HCT-116 = assay: MTS proliferation assay; type: cell-based, human
Description: as §1, §2

HCT-15 = assay: MTS proliferation assay; type: cell-based, human
Description: as §1, §2

HCT116SS42 = assay: MTS proliferation assay; type: cell-based, human
Description: as §1, §2

KM12C = assay: MTS proliferation assay; type: cell-based, human
Description: as §1, §2

LS-123 = assay: MTS proliferation assay; type: cell-based, human
Description: as §1, §2

LS-513 = assay: MTS proliferation assay; type: cell-based, human
Description: as §1, §2

MIP = assay: MTS proliferation assay; type: cell-based, human
Description: as §1, §2

RCM-1 = assay: MTS proliferation assay; type: cell-based, human
Description: as §1, §2

RKO-RM13 = assay: MTS proliferation assay; type: cell-based, human
Description: as §1, §2

SK-CO-1 = assay: MTS proliferation assay; type: cell-based, human; conditions: for IC50: Homo sapiens
Description: as §1, §2

SNU-61 = assay: MTS proliferation assay; type: cell-based, human
Description: as §1, §2

SNU-C1 = assay: MTS proliferation assay; type: cell-based, human
Description: as §1, §2

SNU-C2B = assay: MTS proliferation assay; type: cell-based, human
Description: as §1, §2

SNU175 = assay: MTS proliferation assay; type: cell-based, human
Description: as §1, §2

SW1116 = assay: MTS proliferation assay; type: cell-based, human
Description: as §1, §2

SW1417 = assay: MTS proliferation assay; type: cell-based, human
Description: as §1, §2

SW1463 = assay: MTS proliferation assay; type: cell-based, human
Description: as §1, §2

SW480 = assay: MTS proliferation assay; type: cell-based, human
Description: as §1, §2

SW837 = assay: MTS proliferation assay; type: cell-based, human
Description: as §1, §2

[1] = tested on: panel of 60 CRC cell lines; assay: MTS proliferation assay, whole panel; type: cell-based, human; conditions: read-out: IC50, range of sensitivity across the panel
Description: as §1, §2

[2] = patients at minimum efficacious dose, phase I solid tumor trials; cited from earlier work

Description for pIGF-1R/pIR and pAKT: Cells were serum-starved overnight, then either stimulated with 50 ng/ml IGF-1, IGF-2 or insulin for 10 minutes, or unstimulated. Cell lysates were subjected to MSD for measuring both total and phosphorylated IGF-1R and AKT. The phospho-protein values were normalized to the corresponding total protein levels (e.g., pIGF-1R/IGF-1R). The ligand-stimulated activation of IGF-1R or AKT is presented as the ratio of the pIGF-1R/IGF-1R or pAKT/AKT value in IGF-1, IGF-2 or insulin-stimulated cells vs. the value in the non-stimulated cells. […] 20 ug of total protein from cell lysates were subjected to Western blot analysis.
Western Blots and MesoScale Discovery (MSD) Multiplex Plate Based Assays. […] Antibodies for pIGF-IR/pIR, pAkt, p-p44/42 MAPK and IRS2 for Western blot and MSD were purchased from Cell Signaling Technology and Santa Cruz Biotechnology (see figure legends) except for β-ACTIN® sourced from Millipore. Protein signals from Western blots were visualized using ODYSSEY® Imaging (Li-Cor Biosciences). Measurement of phospho- and total IGF-1R, IR, IRS-1, Akt and MAPK was also determined by commercially available multiplex plate based assays (MSD, Gaithersburg Md.). […] Measurement of IRS2 was determined using customized assays utilizing MSD technology.
Cell lysates were subsequently subjected to Western blot analysis and evaluated for pIGF-1R/pIR and pAKT.

Compound: C[C@@]1(C(=O)Nc2ccc(F)nc2)CCCN1c1nc(Nc2cc(C3CC3)n[nH]2)c2cccn2n1 [BMS-754807, (2S)-1-(4-((5-cyclopropyl-1H-pyrazol-3-yl)amino)pyrrolo[2,1-f][1,2,4]triazin-2-yl)-N-(6-fluoro-3-pyridinyl)-2-methyl-2-pyrrolidinecarboxamide]
- Sensitivity to BMS-754807 (COLO-205; COLO205, preliminary panel of 45 CRC cell lines): Intermediate (remaining 30 cell lines classified as Intermediate or resistant)
- Sensitivity Classes (COLO-205; COLO-205): R (“R” refers Resistant)
- IC50 (COLO-205; Homo sapiens, COLO 205, 72 h): 0.242 µM
- Sensitivity Classes (COLO-678; COLO-678): R (“R” refers Resistant)
- IC50 (COLO-678; Homo sapiens, COLO-678, 72 h): 0.192 µM
- Sensitivity Classes (COLO320DM; COLO320DM): S (“S” refers Sensitive)
- Sensitivity to BMS-754807 (COLO320DM; COLO320DM, preliminary panel of 45 CRC cell lines): Sensitive (a sensitive cell line was classified as one with an IC50 of ≦50 nmol/L)
- IC50 (COLO320DM; Homo sapiens, COLO 320DM, 72 h): 0.041 µM
- Sensitivity Classes (CaR-1; CaR-1): R (“R” refers Resistant)
- IC50 (CaR-1; Homo sapiens, CaR-1, 72 h): 0.375 µM
- Sensitivity Classes (DIFI; DIFI): S (“S” refers Sensitive)
- Sensitivity to BMS-754807 (DIFI; DIFI, preliminary panel of 45 CRC cell lines): Sensitive (a sensitive cell line was classified as one with an IC50 of ≦50 nmol/L)
- IC50 (DIFI; Homo sapiens, DiFi, 72 h): 0.012 µM
- Sensitivity Classes (GEO; GEO): R (“R” refers Resistant)
- Sensitivity to BMS-754807 (GEO; GEO, preliminary panel of 45 CRC cell lines): Intermediate (remaining 30 cell lines classified as Intermediate or resistant)
- IC50 (GEO; Homo sapiens, 72 h): 0.407 µM
- Sensitivity Classes (GP2D; GP2D): R (“R” refers Resistant)
- IC50 (GP2D; Homo sapiens, GP2d, 72 h): 0.261 µM
- Sensitivity Classes (GP5D; GP5D): R (“R” refers Resistant)
- IC50 (GP5D; Homo sapiens, GP5d, 72 h): 0.252 µM
- Sensitivity to BMS-754807 (HCT-116; HCT116, preliminary panel of 45 CRC cell lines): Resistant (resistant cell lines had IC50 values of >50 nmol/L)
- Sensitivity Classes (HCT-116; HCT-116): R (“R” refers Resistant)
- IC50 (HCT-116; Homo sapiens, HCT-116, 72 h): 0.503 µM
- Sensitivity to BMS-754807 (HCT-15; HCT15, preliminary panel of 45 CRC cell lines): Resistant (resistant cell lines had IC50 values of >50 nmol/L)
- Sensitivity Classes (HCT-15; HCT-15): R (“R” refers Resistant)
- IC50 (HCT-15; Homo sapiens, HCT-15, 72 h): 0.757 µM
- Sensitivity Classes (HCT116SS42; HCT116SS42): R (“R” refers Resistant)
- Sensitivity to BMS-754807 (HCT116SS42; HCT116SS42, preliminary panel of 45 CRC cell lines): Intermediate (remaining 30 cell lines classified as Intermediate or resistant)
- IC50 (HCT116SS42; Homo sapiens, 72 h): 0.427 µM
- Sensitivity Classes (KM12C): S (“S” refers Sensitive)
- IC50 (KM12C; Homo sapiens, 72 h): 0.033 µM
- Sensitivity to BMS-754807 (KM12C; preliminary panel of 45 CRC cell lines): Sensitive (a sensitive cell line was classified as one with an IC50 of ≦50 nmol/L)
- IC50 (LS-123; Homo sapiens, LS-123, 72 h): 4.47 µM
- Sensitivity to BMS-754807 (LS-123; LS123, preliminary panel of 45 CRC cell lines): Resistant (resistant cell lines had IC50 values of >50 nmol/L)
- Sensitivity Classes (LS-123; LS-123): R (“R” refers Resistant)
- IC50 (LS-513; Homo sapiens, LS-513, 72 h): 0.015 µM
- Sensitivity to BMS-754807 (LS-513; LS513, preliminary panel of 45 CRC cell lines): Sensitive (a sensitive cell line was classified as one with an IC50 of ≦50 nmol/L)
- Sensitivity Classes (LS-513; LS-513): S (“S” refers Sensitive)
- Sensitivity Classes (MIP): R (“R” refers Resistant)
- IC50 (MIP; Homo sapiens, 72 hrs): 4.36 µM
- IC50 (RCM-1; Homo sapiens, RCM-1, 72 h): 0.024 µM
- Sensitivity Classes (RCM-1; RCM-1): S (“S” refers Sensitive)
- IC50 (RKO-RM13; Homo sapiens, 72 h): 0.727 µM
- Sensitivity Classes (RKO-RM13; RKO-RM13): R (“R” refers Resistant)
- Sensitivity to BMS-754807 (RKO-RM13; RKO-RM13, preliminary panel of 45 CRC cell lines): Resistant (resistant cell lines had IC50 values of >50 nmol/L)
- IC50 (SK-CO-1; SK-CO-1): 0.003 µM
- IC50 (SK-CO-1; SK-CO-1, 72 h): 0.003 µM
- Sensitivity Classes (SK-CO-1; SK-CO-1): S (“S” refers Sensitive)
- Sensitivity to BMS-754807 (SK-CO-1; SK-CO-1, preliminary panel of 45 CRC cell lines): Sensitive (a sensitive cell line was classified as one with an IC50 of ≦50 nmol/L)
- IC50 (SNU-61; Homo sapiens, 72 h): 0.035 µM
- Sensitivity Classes (SNU-61; SNU-61): S (“S” refers Sensitive)
- IC50 (SNU-C1; Homo sapiens, SNU-C1, 72 h): 0.013 µM
- Sensitivity Classes (SNU-C1; SNU-C1): S (“S” refers Sensitive)
- Sensitivity to BMS-754807 (SNU-C1; SNUC1, preliminary panel of 45 CRC cell lines): Sensitive (a sensitive cell line was classified as one with an IC50 of ≦50 nmol/L)
- IC50 (SNU-C2B; Homo sapiens, SNU-C2B, 72 h): 1.48 µM
- Sensitivity Classes (SNU-C2B; SNU-C2B): R (“R” refers Resistant)
- Sensitivity to BMS-754807 (SNU-C2B; SNUC2B, preliminary panel of 45 CRC cell lines): Resistant (resistant cell lines had IC50 values of >50 nmol/L)
- IC50 (SNU175; Homo sapiens, 72 h): 0.003 µM
- Sensitivity Classes (SNU175; SNU175): S (“S” refers Sensitive)
- IC50 (SW1116; Homo sapiens, SW 1116, 72 h): 0.024 µM
- Sensitivity Classes (SW1116; SW1116): S (“S” refers Sensitive)
- Sensitivity to BMS-754807 (SW1116; SW1116, preliminary panel of 45 CRC cell lines): Sensitive (a sensitive cell line was classified as one with an IC50 of ≦50 nmol/L)
- IC50 (SW1417; Homo sapiens, SW1417, 72 h): 0.106 µM
- Sensitivity Classes (SW1417; SW1417): R (“R” refers Resistant)
- Sensitivity to BMS-754807 (SW1417; SW1417, preliminary panel of 45 CRC cell lines): Intermediate (remaining 30 cell lines classified as Intermediate or resistant)
- IC50 (SW1463; Homo sapiens, SW1463, 72 h): 0.016 µM
- Sensitivity Classes (SW1463; SW1463): S (“S” refers Sensitive)
- Sensitivity to BMS-754807 (SW1463; SW1463, preliminary panel of 45 CRC cell lines): Sensitive (a sensitive cell line was classified as one with an IC50 of ≦50 nmol/L)
- IC50 (SW480; Homo sapiens, SW480, 72 h): 4.89 µM
- Sensitivity Classes (SW480; SW480): R (“R” refers Resistant)
- Sensitivity to BMS-754807 (SW480; SW480, preliminary panel of 45 CRC cell lines): Resistant (resistant cell lines had IC50 values of >50 nmol/L)
- IC50 (SW837; Homo sapiens, SW837, 72 h): 1.89 µM
- Sensitivity Classes (SW837; SW837): R (“R” refers Resistant)
- Sensitivity to BMS-754807 (SW837; SW837, preliminary panel of 45 CRC cell lines): Resistant (resistant cell lines had IC50 values of >50 nmol/L)
- IC50 [1]: 0.003 to 5.5 µM
- pIGF-1R/pIR and pAKT levels (pIGF-1R/pIR and pAKT): inhibited by BMS-754807 treatment in a dose-dependent manner
- average plasma concentration at steady state [2]: > 50 nmol/L
